In patent US20170304336A1, “COMBINATION” (priority 2014, published 2017):
Several values for one entry are separate records, joined by “and”; a condition that tells them apart may be missing. Equal entries are not always repeated. One block for each compound: values may come before it.

Assays:
[1] = Stability of statin/glycyrrhizic acid molecular complexes by content of glycyrrhizic acid; format: physicochemical; details: interval between testing points 7 months; European Pharmacopoeia 7.0 methodology
Protocol: Stability of these complexes was determined on the basis of quantitative content of glycyrrhizic acid (in percentage form). The interval between the testing points was 7 months. The testing methodology was taken from European Pharmacopoeia 7.0. […] This decline is related both to the conditions of synthesis (maximum decline observed for liquid-phase synthesis) and to the properties of the active ingredient itself.

[2] = system: experimental rat hypercholesterolemia model; test: Biochemical blood analysis (drug toxicity parameters) in rat hypercholesterolemia model; format: in vivo, male rats of Wistar line
Protocol: (§1) Evaluation of hypocholesterolemic efficacy and safety of pharmaceutical combination was performed in vivo in experimental rat hypercholesterolemia model.
(§2) For 90 days the studied animals received hypercholesterol diet for pathology induction. The diet included Cholesterol+Cholic acid+Overheated fats (deep fat).
(§3) Drugs were introduced intragastrically with an esophageal bougie daily on Day 31-90 of the study at the same time of day.
Biochemical parameters and activity of serum enzymes (aspartate- and alanine aminotransferase, creatine phosphokinase, urea, serum amylase, total bilirubin, direct bilirubin, indirect bilirubin, serum glucose, cations K^+, Na^+).
1.0-1.84 ml blood samples for the study of biochemical parameters were taken from tail vein of rats. Blood samples were taken from the animals after 14-15-hour's fasting at same time of day (9.00-11.00). For biochemical parameters tests a Biochemical Analyzer A-25 (Biosystems, Spain) was used.
Vol. 4. pp. 1794-1798; Pearlman F C and Lee R T Y. Clin Chem 1974, 20, 447-453; Zoppi F et al, Peracino A., Fenili D., Marcovina S. and Ramella C. Giorn It Chim Cl. […] C. et al Clin Chem. 1974. Vol. 20. pp. 470-475; and in Meiattini F., et al, Clin Chem. 1978. Vol. 24. pp. 2161-2165 (total cholesterol); Warnick G R et al. Clin Chem 2001, 47, 1579-96 (HDL/LDL); Bucolo G and David H. Clin Chem. 1973.-Vol. 19. pp. 476-482; and in Fossati P. and, Prencipe L., Clin Chem. 1982. Vol. 28. pp. 2077-2080 (triglycerides); Trinder P. Ann Clin Biochem. 1969. Vol. 6. pp. 24-27).

[3] = Mass coefficients of organs (pancreas, liver, kidneys) of rats; format: in vivo, male rats of Wistar line; details: for weight coefficient, Kidneys / weight coefficient, Liver: in %
Protocol: To calculate mass coefficients the pancreas, liver and kidneys of the animals were extracted. The organs were weighed and the mass coefficients were calculated by the following formula:
Mass coefficient=(organ weight/animal body weight)×100%

[4] = system: experimental rat hypercholesterolemia model; test: Lipid spectrum of blood in experimental rat hypercholesterolemia model; format: in vivo, male rats of Wistar line
Protocol: The animals used were male rats of Wistar line. […] The proposed model using rats as the experimental animals is a reproducible standard model for evaluation of hypocholesterolemic effect.
as §1, §2
For 90 days the animals received the said ration ad libitum (30 g feed per animal). Development of hypercholesterolemia in animals was evaluated based on changes in lipid spectrum parameters on Day 30 of the study.
as §3
Biochemical parameters and activity of blood serum enzymes (total cholesterol (CHS), LDL-CHS, HDL-CHS, triglycerides.
1.0-1.84 ml blood samples for the study of biochemical parameters were taken from tail vein of rats. Blood samples were taken from the animals after 14-15-hour's fasting at same time of day (9.00-11.00). For biochemical parameters tests a Biochemical Analyzer A-25 (Biosystems, Spain) was used. […]

[5] = Mass coefficients of liver and pancreas of rabbits; format: in vivo, male rabbits of Californian breed; details: for Mass ratios, M ± SEM, Liver / Mass ratios, M ± SEM, Pancreas: dose 100 mg; for pancreatic mass coefficients relative to the control group: rosuvastatin 40 mg, AGA 100 mg
[6] = Dynamics of body weight of rabbits (Schemes A and B); format: in vivo, male rabbits of Californian breed; details: for Body weight: Scheme A, M ± SEM
[7] = Day 30 of treatment (Day 60 of study), dose 90 mg
[8] = blood, Day 60 of the treatment (Day 90 of the study), AV + GA 10 + 90 mg, AV 10 mg, GA 90 mg
[9] = blood, Day 60 of the treatment (Day 90 of the study), FV + GA 80 + 90 mg, FV 80 mg, GA 90 mg
[10] = M ± m, AV + GA 10 + 90 mg, AV 20 mg, GA 90 mg
[11] = M ± m, FV + GA 80 + 90 mg, FV 80 mg, GA 90 mg
[12] = Day 60 of treatment (Day 90 of study), dose 90 mg
[13] = Day 30 of treatment (Day 60 of study), dose 108 mg
[14] = blood, Day 60 of the treatment (Day 90 of the study), RV + AGA 10 + 108 mg, RV 10 mg, AGA 108 mg
[15] = blood, Day 60 of the treatment (Day 90 of the study), SV + AGA 20 + 108 mg, SV 20 mg, AGA 108 mg
[16] = (organ weight/animal body weight)×100%, Day 90 of study, dose 108 mg
[17] = M ± m, RV + AGA 10 + 108 mg, RV 10 mg, AGA 108 mg
[18] = Day 60 of treatment (Day 90 of study), dose 108 mg

stability with regard to time (content of glycyrrhizic acid) [1]: unstable
weight coefficient, Pancreas [3, 10]: 0.20 ± 0.01^2
weight coefficient, Kidneys [3, 10]: 0.80 ± 0.01
weight coefficient, Liver [3, 10]: 4.41 ± 0.09
weight coefficient, Pancreas [3, 11]: 0.23 ± 0.01^2
weight coefficient, Kidneys [3, 11]: 0.80 ± 0.03
weight coefficient, Liver [3, 11]: 4.42 ± 0.09
Compound: CC1(C)[C@@H](O[C@H]2O[C@H](C(=O)O)[C@@H](O)[C@H](O)[C@H]2O[C@@H]2O[C@H](C(=O)O)[C@@H](O)[C@H](O)[C@H]2O)CC[C@]2(C)[C@H]3C(=O)C=C4[C@@H]5C[C@@](C)(C(=O)O)CC[C@]5(C)CC[C@@]4(C)[C@]3(C)CC[C@@H]12 [GA, (3β,18α)-30-hydroxy-11,30-dioxoolean-12-en-3-yl 2-O-β-D-glucopyranuronosyl-β-D-glucopyranosiduronic acid]
ALT [2, 7]: 100 U/l
AST [2, 7]: 125 U/l and 132 U/l
Amylase [2, 7]: 618 U/l
Bilirubin direct [2, 7]: 2.2 mg/dL
Bilirubin indirect [2, 7]: 1.4 mg/dL
Bilirubin total [2, 7]: 4.5 mg/dL
CPK [2, 7]: 320 U/l
Glucose [2, 7]: 111 mg/dL
Potassium [2, 7]: 2.2 mM
Sodium [2, 7]: 135 mmol
Urea [2, 7]: 5.7 mmol/L
ALT [2, 8]: 103 U/l
AST [2, 8]: 115 U/l
Amylase [2, 8]: 600 U/l
Bilirubin direct [2, 8]: 2.2 mg/dL
Bilirubin indirect [2, 8]: 1.8 mg/dL
Bilirubin total [2, 8]: 4.3 mg/dL
CPK [2, 8]: 233 U/l
Glucose [2, 8]: 116 mg/dL
Potassium [2, 8]: 3.1 mM
Sodium [2, 8]: 123 mmol
Urea [2, 8]: 5.0 mmol/L
ALT [2, 9]: 103 U/l
AST [2, 9]: 121 U/l
Amylase [2, 9]: 600 U/l
Bilirubin direct [2, 9]: 2.2 mg/dL
Bilirubin indirect [2, 9]: 1.8 mg/dL
Bilirubin total [2, 9]: 4.3 mg/dL
CPK [2, 9]: 233 U/l
Glucose [2, 9]: 116 mg/dL
Potassium [2, 9]: 3.1 mM
Sodium [2, 9]: 123 mmol
Urea [2, 9]: 5.0 mmol/L
HDL CHS [4, 7]: 0.63 ± 0.04 mmol/L
LDL CHS [4, 7]: 4.00 ± 0.3 mmol/L
TG [4, 7]: 1.6 ± 0.10 mmol/L
Total CHS [4, 7]: 5.2 ± 0.5 mmol/L
HDL CHS [4, 12]: 0.73 ± 0.04 mmol/L
LDL CHS [4, 12]: 3.90 ± 0.3 mmol/L
TG [4, 12]: 1.6 ± 0.10 mmol/L
Total CHS [4, 12]: 4.5 ± 0.5 mmol/L

Mass ratios, M ± SEM, Liver ([5]; Scheme A): 3.3 ± 0.1
Mass ratios, M ± SEM, Pancreas ([5]; Scheme A): 0.05 ± 0.003
pancreatic mass coefficients relative to the control group ([5]; Scheme A): Statistically significant decrease
Mass ratios, M ± SEM, Liver ([5]; Scheme B): 3.0 ± 0.2
Mass ratios, M ± SEM, Pancreas ([5]; Scheme B): 0.06 ± 0.004^
pancreatic mass coefficients relative to the control group ([5]; Scheme B): statistically significant decrease
weight coefficient, Pancreas [3, 17]: 0.22 ± 0.01^2
weight coefficient, Kidneys [3, 17]: 0.81 ± 0.01
weight coefficient, Liver [3, 17]: 4.41 ± 0.08
Compound: CC1(C)[C@@H](O[C@H]2O[C@H](C(=O)O)[C@@H](O)[C@H](O)[C@H]2O[C@@H]2O[C@H](C(=O)O)[C@@H](O)[C@H](O)[C@H]2O)CC[C@]2(C)[C@H]3C(=O)C=C4[C@@H]5C[C@@](C)(C(=O)O)CC[C@]5(C)CC[C@@]4(C)[C@]3(C)CC[C@@H]12.N [AGA, Monoammonium glycyrrhizinate]
ALT [2, 13]: 98 U/l
AST [2, 13]: 130 U/l
Amylase [2, 13]: 620 U/l
Bilirubin direct [2, 13]: 2.1 mg/dL
Bilirubin indirect [2, 13]: 1.8 mg/dL
Bilirubin total [2, 13]: 4.1 mg/dL
CPK [2, 13]: 310 U/l and 312 U/l
Glucose [2, 13]: 112 mg/dL
Potassium [2, 13]: 2.7 mM
Sodium [2, 13]: 120 mmol
Urea [2, 13]: 6.8 mmol/L
ALT [2, 14]: 100 U/l
AST [2, 14]: 131 U/l
Amylase [2, 14]: 600 U/l
Bilirubin direct [2, 14]: 2.3 mg/dL
Bilirubin indirect [2, 14]: 1.9 mg/dL
Bilirubin total [2, 14]: 2.9 mg/dL
CPK [2, 14]: 310 U/l
Glucose [2, 14]: 110 mg/dL
Potassium [2, 14]: 3.2 mM
Sodium [2, 14]: 122 mmol
Urea [2, 14]: 5.5 mmol/L
ALT [2, 15]: 100 U/l
AST [2, 15]: 131 U/l
Amylase [2, 15]: 600 U/l
Bilirubin direct [2, 15]: 2.3 mg/dL
Bilirubin indirect [2, 15]: 1.9 mg/dL
Bilirubin total [2, 15]: 2.9 mg/dL
CPK [2, 15]: 310 U/l
Glucose [2, 15]: 110 mg/dL
Potassium [2, 15]: 3.2 mM
Sodium [2, 15]: 122 mmol
Urea [2, 15]: 5.5 mmol/L
Body weight ([6]; Day 0 (Before the study), dose group 100 mg (Table 37)): 2936 ± 150 g
Body weight ([6]; Day 28 (in the setting of pathology without treatment), dose group 100 mg (Table 37)): 3369 ± 168 g
Body weight ([6]; Day 90 (in the setting of pathology with treatment), dose 100 mg (Table 37)): 3955 ± 119 g
body weight versus control animals ([6]; Scheme B, day 120, rosuvastatin+AGA 20+200 mg, atorvastatin+AGA 20+100 mg, AGA 100 mg): significantly lower
Body weight, M ± SEM, Day 120 (in the setting of pathology with treatment) ([6]; Scheme B, dose 100 mg): 4150 ± 144^2 g
Body weight, M ± SEM, Day 0 (Before the study) ([6]; Scheme B, dose 100 mg, baseline): 2809 ± 145 g
Body weight, M ± SEM, Day 56 (in the setting of pathology without treatment) ([6]; Scheme B, dose 100 mg, before treatment): 3569 ± 164 g
weight coefficient, Pancreas [3, 16]: 0.21 ± 0.01^2
weight coefficient, Kidneys [3, 16]: 0.81 ± 0.02
weight coefficient, Liver [3, 16]: 4.40 ± 0.09
HDL CHS [4, 13]: 0.53 ± 0.05 mmol/L
LDL CHS [4, 13]: 4.40 ± 0.4 mmol/L
TG [4, 13]: 1.5 ± 0.11 mmol/L
Total CHS [4, 13]: 5.8 ± 0.5 mmol/L
HDL CHS [4, 18]: 0.63 ± 0.05 mmol/L
LDL CHS [4, 18]: 3.80 ± 0.3 mmol/L
TG [4, 18]: 1.30 ± 0.12 mmol/L
Total CHS [4, 18]: 4.5 ± 0.4 mmol/L
